We go through 15 molecules from patent US7858640B2, “Quinolines and their therapeutic use” (Pulmagen Therapeutics (Asthma) Limited, priority 2005, dated 2010).

Test [1] concerns the target T1, CRTH2 receptor (Homo sapiens, UniProt Q9Y5Y4).
T1 sequence (Q9Y5Y4 1-395): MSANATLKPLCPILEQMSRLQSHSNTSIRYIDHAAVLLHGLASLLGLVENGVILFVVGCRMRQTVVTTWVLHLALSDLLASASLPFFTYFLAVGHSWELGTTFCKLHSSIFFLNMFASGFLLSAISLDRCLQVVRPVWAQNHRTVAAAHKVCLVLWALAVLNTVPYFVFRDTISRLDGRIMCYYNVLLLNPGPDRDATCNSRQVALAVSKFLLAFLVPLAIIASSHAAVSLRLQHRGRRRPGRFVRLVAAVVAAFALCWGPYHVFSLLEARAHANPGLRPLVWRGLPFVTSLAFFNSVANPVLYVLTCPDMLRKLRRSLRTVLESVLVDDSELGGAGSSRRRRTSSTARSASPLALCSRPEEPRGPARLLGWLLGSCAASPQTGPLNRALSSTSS
Briefly: Functional assay: calcium mobilisation. Conditions: CHO-K1 cells co-expressing CRTH2 receptor and Gα16; antagonism of PGD2 at its EC80. More on the design: expressed in transfected cells. It is filed as cell-based. The method, then: Functional Assay: Calcium Mobilisation
Stable CHO-K1 cells co-expressing the CRTH2 receptor and the G-protein Gα16 are seeded (40,000 cells per well in a plating volume of 75 μL in F-12 Hams supplemented with 1% foetal bovine serum) into collagen-coated 96-well, plates 24 hours prior to the assay. The cells are then loaded with a fluorescence-imaging plate reader (FLIPR) calcium kit dye (Calcium 3 kit, Molecular Devices Ltd) containing 5 mM final concentration of probenecid and incubated at 37° C. for 1 hour in a 5% CO2 atmosphere. The fluorescence emission caused by intracellular calcium mobilization elicited by the PGD2 at the CRTH2 receptor is determined with a FLEXstation benchtop scanning and integrated fluid transfer workstation (Molecular Devices Ltd). To detect antagonists and determine compound IC50, compounds are pre-incubated at varying concentrations with the loaded cells for 15 minutes at 37° C., 5% CO2, prior to the addition of the agonist at its EC80 value. Compounds and agonist are added in Hanks balanced salt solution containing 20 mM HEPES and 0.1% BSA). The fractional response values for each well are calculated by subtracting the basal response from the peak response. Results are calculated as the mean of triplicate wells using Excel and XLfit (Microsoft).
Background: Calcium flux is commonly read through the fluorescence of an indicator in the cells.

The target in test [2] is T1, CRTH2 receptor. As to the kind of experiment: Radioligand binding assay ([3H]-PGD2 displacement, SPA). Set-up: expressed in transfected cells; host or cells: HEK cell membranes. To be noted: HEK cell membranes expressing the CRTH2 receptor, 1 nM [3H]-PGD2; Ki from IC50 by Cheng-Prusoff. The method, then: Radioligand Binding Assay
The receptor binding assay is performed in a final volume of 200 μL binding buffer [10 mM BES (pH 7.4), 1 mM EDTA, 10 mM manganese chloride, 0.01% BSA] and 1 nM [^3H]-PGD2 (Amersham Biosciences UK Ltd). Ligands are added in assay buffer containing a constant amount of DMSO (1% by volume). Total binding is determined using 1% by volume of DMSO in assay buffer and non-specific binding is determined using 10 μM of unlabeled PGD2 (Sigma). Human embryonic kidney (HEK) cell membranes (3.5 μg) expressing the CRTH2 receptor are incubated with 1.5 mg wheatgerm agglutinin SPA beads and 1 nM [^3H]-PGD2 (Amersham Biosciences UK Ltd) and the mixture incubated for 3 hours at room temperature. Bound [^3H]-PGD2 is detected using a Microbeta TRILUX liquid scintillation counter (Perkin Elmer). Compound IC50 value is determined using a 6-point dose response curve in duplicate with a semi-log compound dilution series. IC50 calculations are performed using Excel and XLfit (Microsoft), and this value is used to determine a Ki value for the test compound using the Cheng-Prusoff equation.

As usually defined, the IC50 is the concentration at which inhibition is half-maximal. The term Ki denotes the equilibrium dissociation constant of an inhibitor or competing ligand from its target.

As for `Cc1nc2c(Cl)ccc(OCC(=O)O)c2c(OC(F)F)c1Cc1ccc(F)cc1` [Example 18, [8-chloro-4-difluoromethoxy-3-(4-fluorobenzyl)-2-methylquinolin-5-yloxy]acetic acid], the half-inhibitory concentration (IC50) on CRTH2 receptor [1] is less than 100 nM. The molecule further yielded an inhibitory constant (Ki) at CRTH2 receptor [2] of less than 100 nM. For the molecule `Cc1nc2c(Cl)ccc(OCC(=O)O)c2c(C)c1Cc1ccc(S(C)(=O)=O)cc1` [Example 20, [8-chloro-3-(4-methanesulfonylbenzyl)-2,4-dimethylquinolin-5-yloxy]acetic Acid], at CRTH2 receptor [1], the IC50 was less than 1000 nM. The molecule further came in with a Ki at CRTH2 receptor [2] of less than 100 nM.

On to `Cc1nc2c(Cl)ccc(-c3nnn[nH]3)c2c(C)c1Cc1ccc(Cl)cc1` [Example 42, 8-chloro-3-(4-chlorobenzyl)-2,4-dimethyl-5-(1H-tetrazol-5-yl)quinoline], for which, on CRTH2 receptor [1], the half-inhibitory concentration (IC50) was less than 1000 nM. Besides, the inhibition constant Ki at CRTH2 receptor [2] was less than 10000 nM. For the molecule `Cc1nc2c(Cl)ccc(CC(=O)O)c2c(C)c1Sc1ccc(Cl)cc1` [Example 12, [8-chloro-3-(4-chlorophenylsulfanyl)-2,4-dimethylquinolin-5-yl]acetic Acid], the IC50 on CRTH2 receptor [1] was less than 100 nM. For the same molecule, on CRTH2 receptor [2], the Ki is less than 100 nM. For `CCc1nc2c(F)ccc(OCC(=O)O)c2c(OC(F)F)c1Cc1ccc(F)cc1F` [Example 53, [3-(2,4-difluorobenzyl)-4-difluoromethoxy-2-ethyl-8-fluoroquinolin-5-yloxy]acetic Acid], at CRTH2 receptor [2], the inhibitory constant (Ki) is less than 100 nM. The same measure, in the same setting: as for `Cc1nc2c(Cl)ccc(CC(=O)O)c2c(C)c1Oc1ccc(Cl)cc1` [Example 15, [8-chloro-3-(4-chlorophenoxy)-2,4-dimethylquinolin-5-yl]acetic Acid], the figure is less than 100 nM; as for `CCc1nc2c(Cl)ccc(OCC(=O)O)c2c(OC(F)F)c1Cc1ccc(C(=O)N2CCCC2)cc1` [Example 71, {8-chloro-4-difluoromethoxy-2-ethyl-3-[4-(pyrrolidine-1-carbonyl)benzyl]quinolin-5-yloxy}acetic Acid], less than 100 nM. `CCc1nc2c(Cl)ccc(OCC(=O)O)c2c(C)c1Cc1ccc(Cl)cc1` [Example 17, [8-chloro-3-(4-chlorobenzyl)-2-ethyl-4-methylquinolin-5-yloxy]acetic Acid] displayed an inhibition constant (Ki) on CRTH2 receptor [2] of less than 100 nM. For the molecule `Cc1nc2c(Cl)ccc(CC(=O)O)c2c(OC(F)F)c1Cc1ccc(Cl)cc1` [Example 25, [8-chloro-3-(4-chlorobenzyl)-4-difluoromethoxy-2-methylquinolin-5-yl]acetic acid], the inhibition constant (Ki) at CRTH2 receptor [2] was less than 1000 nM. In turn, `CCc1nc2c(Cl)ccc(OCC(=O)O)c2c(CC)c1Cc1ccc(S(C)(=O)=O)cc1` [Example 41, [8-chloro-2,4-diethyl-3-(4-methanesulfonylbenzyl)quinolin-5-yloxy]acetic Acid] came in with an inhibition constant (Ki) at CRTH2 receptor [2] of less than 100 nM. The same measure, in the same setting: under `COc1c(Cc2ccc(Cl)cc2)c(C)nc2c(Cl)ccc(OCC(=O)O)c12` [Example 1, [8-chloro-3-(4-chlorobenzyl)-4-methoxy-2-methylquinolin-5-yloxy]acetic Acid] stands less than 100 nM; under `CCc1nc2c(F)ccc(O[C@@H](C)C(=O)O)c2c(OC(F)F)c1Cc1ccc(C(=O)NC2CCC2)cc1Cl` [Example 77, (S)-2-[3-(2-chloro-4-cyclobutylcarbamoylbenzyl)-4-difluoromethoxy-2-ethyl-8-fluoroquinolin-5-yloxy]propionic acid], less than 100 nM; under `Cc1c(Cc2ccc(S(C)(=O)=O)cc2Cl)c(OC(F)F)nc2c(Cl)ccc(OCC(=O)O)c12` [Example 40, [8-chloro-3-(2-chloro-4-methanesulfonylbenzyl)-2-difluoromethoxy-4-methylquinolin-5-yloxy]acetic Acid], less than 100 nM. The same measure, in the same setting: as for `Cc1cc(CC(=O)O)c2c(C)c(Cc3ccc(Cl)cc3)c(C)nc2c1` [Example 5, [3-(4-chlorobenzyl)-2,4,7-trimethylquinolin-5-yl]acetic Acid], the figure is less than 1000 nM; as for `CCc1nc2c(F)ccc(OCC(=O)O)c2c(OC(F)F)c1Cc1ccc(F)cc1Cl` [Example 58, [3-(2-chloro-4-fluorobenzyl)-4-difluoromethoxy-2-ethyl-8-fluoroquinolin-5-yloxy]acetic Acid], less than 100 nM.
